Common to all, as to type: in vivo
Assay [1] relates to Digitaria. In words: Post-emergence test. As to conditions: after three weeks. Here is the method:
(§1) [table] To produce a suitable preparation of active compound, 1 part by weight of active compound is mixed with the stated amount of solvent, the stated amount of emulsifier is added and the concentrate is diluted with water to the desired concentration. Test plants of a height of 5-15 cm are sprayed with the preparation of active compound such that the particular amounts of active compound desired are applied per unit area. The concentration of the spray liquor is chosen such that the particular amount of active compound desired is applied in 1000 l of water/ha. After three weeks, the degree of damage to the plants is rated in % damage in comparison to the development of the untreated control. The figures denote: [table]

Assay [2] concerns Galium. Put plainly: Post-emergence test. To be noted: 125 g ai/ha, after three weeks. As to the method: as §1
In assay [3] the test system is Setaria. In words: Post-emergence test. As to conditions: after three weeks. As to the method: as §1
Assay [4] relates to Sorghum. Put plainly: Post-emergence test. To be noted: after three weeks. Here is the method:
as §1

Assay [5] concerns Soya bean. In words: Post-emergence test. As to conditions: 125 g ai/ha, after three weeks. As to the method: as §1
Assay [6] concerns Alopecurus. Put plainly: Pre-emergence test. As to conditions: after three weeks. As to the method: (§2) [table] To produce a suitable preparation of active compound, 1 part by weight of active compound is mixed with the stated amount of solvent, the stated amount emulsifier is added and the concentrate is diluted with water to the desired concentration. Seeds of the test plants are sown in normal soil. After about 24 hours, the soil is sprayed with the preparation of active compound such that the particular amounts of active compound desired are applied per unit area. The concentration of the spray liquor is chosen such that the particular amounts of active compound desired are applied in 1000 l of water/ha. After three weeks, the degree of damage to the plants is rated in % damage in comparison to the development of the untreated controls. The figures denote: [table]

Assay [7] deals with Chenopodium. In words: Pre-emergence test. To be noted: 60 g ai/ha, after three weeks. Here is the method: as §2
Assay [8] has as its system Echinochloa. Put plainly: Pre-emergence test. As to conditions: 60 g ai/ha, after three weeks. As to the method:
as §2

Assay [9] has as its system Lolium. Put plainly: Pre-emergence test. As to conditions: after three weeks. As to the method:
as §2

Assay [10] deals with Setaria. In words: Pre-emergence test. As to conditions: after three weeks. As to the method: as §2
The subject of assay [11] is Soya bean. Put plainly: Pre-emergence test. To be noted: after three weeks. Here is the method: as §2
Assay [12] has as its system Wheat. Put plainly: Pre-emergence test. To be noted: 60 g ai/ha, after three weeks. As to the method:
as §2

Assay [13] deals with greenhouse red spider mite (Tetranychus urticae). Put plainly: Tetranychus test (OP-resistant/dip treatment). To be noted: active compound concentration of 1000 ppm; after 7 days; infested bean plants dipped. Here is the method: [table] To produce a suitable preparation of active compound, 1 part by weight of active compound is mixed with the stated amounts of solvent and emulsifier, and the concentrate is diluted with emulsifier-containing water to the desired concentration. Bean plants (Phaseolus vulgaris) which are heavily infested by all stages of the greenhouse red spider mite (Tetranychus urticae) are dipped into a preparation of active compound of the desired concentration. After the desired period of time, the effect in % is determined. 100% means that all spider mites have been killed; 0% means that none of the spider mites have been killed.

Assay [14] has as its system white fly Bemisia tabaci. Put plainly: Bemisia test. To be noted: active compound concentration of 1000 ppm; after 10 days; infested cotton plants dipped. As to the method:
[table] To produce a suitable preparation of active compound, 1 part by weight of active compound is mixed with the stated amounts of solvent and emulsifier, and the concentrate is diluted with emulsifier-containing water to the desired concentrations. Cotton plants (Gossypium hirsutum) which are infested by eggs, larvae and pupae of the white fly Bemisia tabaci are dipped into a preparation of active compound of the desired concentration. After the desired period of time, the kill in % is determined. 100% means that all animals have been killed; 0% means that none of the animals have been killed.

Assay [15] relates to Cassia. In words: Post-emergence test. As to conditions: 125 g ai/ha, after three weeks. As to the method: as §1
Assay [16] deals with Lolium. Put plainly: Post-emergence test. To be noted: after three weeks. Here is the method: as §1
Assay [17] deals with Solanum. Put plainly: Post-emergence test. To be noted: 125 g ai/ha, after three weeks. Here is the method: as §1
The subject of assay [18] is Viola. Put plainly: Post-emergence test. To be noted: 125 g ai/ha, after three weeks. Here is the method:
as §1

Assay [19] has as its system Wheat. In words: Post-emergence test. To be noted: after three weeks. As to the method: as §1
Assay [20] concerns larvae of the mustard beetle (Phaedon cochleariae). Put plainly: Phaedon larvae test. To be noted: active compound concentration of 1000 ppm; after 7 days; cabbage leaves dipped. As to the method: (§3) [table] To produce a suitable preparation of active compound, 1 part by weight of active compound is mixed with the stated amounts of solvent and emulsifier, and the concentrate is diluted with emulsifier-containing water to the desired concentration. Cabbage leaves (Brassica oleracea) are treated by being dipped into the preparation of active compound of the desired concentration and are populated with larvae of the mustard beetle (Phaedon cochleariae) while the leaves are still moist. After the desired period of time, the kill in % is determined. 100% means that all beetle larvae have been killed; 0% means that none of the beetle larvae have been killed.

Assay [21] relates to caterpillars of the army worm (Spodoptera frugiperda). Put plainly: Spodoptera frugiperda test. As to conditions: active compound concentration of 1000 ppm; after 7 days; cabbage leaves dipped. As to the method: as §3, with “caterpillars” for “larvae”, “army worm (Spodoptera frugiperda)” for “mustard beetle (Phaedon cochleariae)”, “caterpillars” for “beetle larvae”
Assay [22] concerns peach aphids (Myzus persicae). Put plainly: Myzus test. To be noted: active compound concentration of 1000 ppm; after 6 days; infested cabbage leaves dipped. As to the method:
as §3, with “oleracea) which are heavily infested by the peach aphids (Myzus persicae)” for “oleracea)”, “concentration.” for “concentration and are populated with larvae of the mustard beetle (Phaedon cochleariae) while the leaves are still moist.”, “aphids” for “beetle larvae”

Assay [23] relates to green rice leaf hopper (Nephotettix cincticeps). Put plainly: Nephotettix test. As to conditions: active compound concentration of 1000 ppm; after 6 days; rice seedlings dipped. As to the method:
[table] To produce a suitable preparation of active compound, 1 part by weight of active compound is mixed with the stated amounts of solvent and emulsifier, and the concentrate is diluted with emulsifier-containing, water to the desired concentration. Rice seedlings (Oryza sativa) are treated by being dipped into the preparation of active compound of the desired concentrated and are populated with the green rice leaf hopper (Nephotettix cincticeps) while the leaves are still moist. After the desired period of time, the kill in % is determined. 100% means that all leaf hoppers have been killed; 0% means that none of the leaf hoppers have been killed.

The subject of assay [24] is Alopecurus. In words: Post-emergence test. As to conditions: 60 g ai/ha, after three weeks. Here is the method: as §1
The subject of assay [25] is Avena fatua. Put plainly: Post-emergence test. As to conditions: 60 g ai/ha, after three weeks. Here is the method: as §1
The subject of assay [26] is Cotton. Put plainly: Post-emergence test. To be noted: 60 g ai/ha, after three weeks. Here is the method:
as §1

Assay [27] concerns Avena fatua. In words: Pre-emergence test. To be noted: after three weeks. As to the method: as §2
The subject of assay [28] is Bromus. In words: Pre-emergence test. To be noted: after three weeks. As to the method:
as §2

In assay [29] the test system is Maize. Put plainly: Pre-emergence test. As to conditions: after three weeks. Here is the method: as §2
Assay [30] deals with Sugar beet. Put plainly: Pre-emergence test. As to conditions: after three weeks. Here is the method: as §2
Assay [31] has as its system caterpillars of the owlet moth (Plutella xylostella). Put plainly: Plutella test. To be noted: active compound concentration of 1000 ppm; after 7 days; cabbage leaves dipped. As to the method:
as §3, with “caterpillars” for “larvae”, “owlet moth (Plutella xylostella)” for “mustard beetle (Phaedon cochleariae)”, “caterpillars” for “beetle larvae”

In assay [32] the test system is Echinochloa. Put plainly: Post-emergence test. As to conditions: 60 g ai/ha, after three weeks. As to the method:
as §1

The subject of assay [33] is Sugar beet. Put plainly: Post-emergence test. To be noted: after three weeks. Here is the method: as §1
Assay [34] concerns Oilseed rape. In words: Post-emergence test. As to conditions: 125 g ai/ha, after three weeks. Here is the method:
as §1

As for `CCc1cc(CC)c(C2=C(O)C3(CCC(C)CC3)NC2=O)c(CC)c1` (centres unmarked) [Example I-1-a-5], the “% damage Digitaria” value in [1] (125 g ai/ha) is recorded as 90%. Besides, the “% damage Galium” value in [2] is on record as 80%. The “% damage Setaria” value in [3] (125 g ai/ha) and in assay [10] (60 g ai/ha) was 100% throughout. In assay [4] (125 g ai/ha), the “% damage Sorghum” value is 95%. Also, the “% damage Soya bean” value in assay [5] is 10%; in assay [11] (60 g ai/ha), 0%. The “% damage Alopecurus” value in [6] (60 g ai/ha) worked out at 100%. In assay [7], the “% damage Chenopodium” value stood at 70%. Besides, the “% damage Echinochloa” value in [8] was 100%. Moreover, the “% damage Lolium” value in assay [9] (60 g ai/ha) was found to be 100%. For the same compound, the “% damage Wheat” value in assay [12] was found to be 0%.

Consider `CCc1cc(C)cc(C)c1C1=C(OC(=O)C(C)(C)C)C2(CCC(OC)CC2)OC1=O` (centres unmarked) [Example I-2-b-10], for which the kill in % in assay [13] and in assay [14] was 100% each time. Also, the “% damage Cassia” value in assay [15] is recorded as 95%. In addition, in assay [16] (125 g ai/ha), the “% damage Lolium” value was found to be 80%. For the same compound, in [17], the “% damage Solanum” value is 80%. For the same compound, the “% damage Viola” value in assay [18] turned out to be 90%. Moreover, the “% damage Wheat” value in [19] (125 g ai/ha) is recorded as 10%.

With `CCc1cc(C)cc(C)c1C1=C(O)C2(CCCCC2)OC1=O` [Example I-2-a-3], the kill in % in [20] and in assay [21] was 100% each time.

In the case of `CCc1cc(C)cc(C)c1C1=C(O)C2(CCC(OC)CC2)OC1=O` (centres unmarked) [Example I-2-a-4], the kill in % in assay [22], in [23], in assay [13] and in assay [14] was 100% each time. Also, the “% damage Alopecurus” value stood at 95% in [24] and 100% in assay [6] (125 g ai/ha). Besides, the “% damage Avena fatua” value in assay [25] and in [27] (125 g ai/ha) was 80% each time. Besides, in [26], the “% damage Cotton” value came out at 0%. Further, the entries for the “% damage Lolium” value in [16] (60 g ai/ha) and in assay [9] (125 g ai/ha) were 95% and 100%, respectively. The “% damage Sorghum” value in assay [4] (60 g ai/ha) turned out to be 80%. For the same compound, the “% damage Wheat” value in assay [19] (60 g ai/ha) was 0%. Also, the “% damage Bromus” value in [28] (125 g ai/ha) is listed as 70%. In addition, the “% damage Maize” value in assay [29] (125 g ai/ha) is on record as 5%. Moreover, the “% damage Setaria” value in assay [10] (125 g ai/ha) turned out to be 100%. The “% damage Soya bean” value in assay [11] (125 g ai/ha) stood at 0%. Also, the “% damage Sugar beet” value in assay [30] (125 g ai/ha) stood at 0%.

On to `CCc1cc(C)cc(C)c1C1=C(O)C(C)(C)NC1=O` [Example I-1-a-8], for which the kill in % in assay [23] and in [31] was 100% throughout. Besides, the “% damage Cotton” value in [26] was 0%. Further, the “% damage Digitaria” value in assay [1] (60 g ai/ha) is recorded as 95%. Besides, the “% damage Echinochloa” value in assay [32] was 100%. Also, the “% damage Setaria” value in [3] (60 g ai/ha) and in assay [10] (60 g ai/ha) was 100% each time. Moreover, the “% damage Sorghum” value in [4] (60 g ai/ha) is recorded as 95%. Further, the entries for the “% damage Sugar beet” value in assay [33] (60 g ai/ha) and in assay [30] (60 g ai/ha) were 10% and 0%, respectively. Further, in assay [6] (60 g ai/ha), the “% damage Alopecurus” value was 100%. In assay [27] (60 g ai/ha), the “% damage Avena fatua” value is reported as 90%. Besides, the “% damage Bromus” value in assay [28] (60 g ai/ha) was determined as 100%. For the same compound, in [9] (60 g ai/ha), the “% damage Lolium” value was found to be 100%. Moreover, in [29] (60 g ai/ha), the “% damage Maize” value turned out to be 10%. Moreover, the “% damage Soya bean” value in [11] (60 g ai/ha) is recorded as 0%. Further, the “% damage Wheat” value in assay [12] amounted to 0%.

In the case of `CCc1cc(C)c(C2=C(O)C3(CCC(C)CC3)NC2=O)c(CC)c1` (centres unmarked) [Example I-1-a-2], the kill in % in assay [23] and in [20] was 100% throughout. The “% damage Digitaria” value in [1] (125 g ai/ha) was 80%. Also, in [2], the “% damage Galium” value was found to be 80%. Besides, the “% damage Lolium” value in assay [16] (125 g ai/ha) was found to be 70%. For the same compound, in [34], the “% damage Oilseed rape” value is 0%. Further, in assay [3] (125 g ai/ha), the “% damage Setaria” value is recorded as 95%. In addition, in assay [4] (125 g ai/ha), the “% damage Sorghum” value came out at 80%. Besides, in [33] (125 g ai/ha), the “% damage Sugar beet” value was found to be 0%.

For the origin of these results see patent US7915282B2, “C2-phenyl-substituted cyclic keto-enols used as pesticides and herbicides” (Bayer Aktiengesellschaft, priority 2000, dated 2011).
